# Measured values: ChEMBL document CHEMBL4425185, “Efforts towards the optimization of a bi-aryl class of potent IRAK4 inhibitors” (Bioorg Med Chem Lett, 2016)
# Assays:
# [1] = target: T1, Interleukin-1 receptor-associated kinase 4 (Homo sapiens, UniProt Q9NWZ3); assay: Inhibition of […] IRAK4 in human THP1-XBlue cells assessed as decrease in NF-kappaB level preincubated for 1 hr followed by stimulation with LPS for 4 to 5 hrs measured after 30 mins by spectrophotometric analysis; assay type: cell-based
# T1 sequence (Q9NWZ3 whole entry): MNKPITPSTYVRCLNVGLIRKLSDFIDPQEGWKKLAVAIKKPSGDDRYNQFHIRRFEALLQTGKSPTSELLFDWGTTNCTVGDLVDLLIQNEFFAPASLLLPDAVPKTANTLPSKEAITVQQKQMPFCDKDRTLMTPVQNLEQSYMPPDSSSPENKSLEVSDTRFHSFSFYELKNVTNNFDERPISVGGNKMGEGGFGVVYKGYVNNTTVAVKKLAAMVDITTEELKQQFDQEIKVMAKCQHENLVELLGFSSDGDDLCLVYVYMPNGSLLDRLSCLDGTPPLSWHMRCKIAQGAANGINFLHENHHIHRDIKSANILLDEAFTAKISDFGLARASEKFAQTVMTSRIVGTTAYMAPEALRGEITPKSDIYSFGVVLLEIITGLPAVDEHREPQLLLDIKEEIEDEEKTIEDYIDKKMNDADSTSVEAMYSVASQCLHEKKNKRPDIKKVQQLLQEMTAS
# [2] = Clearance in rat; assay type: ADME; conditions: in vivo
# [3] = Clearance in rat at 2 mg/kg, iv; assay type: ADME, organism-based; conditions: in vivo
# [4] = target: Voltage-gated inwardly rectifying potassium channel KCNH2 (Homo sapiens, UniProt Q12809); assay: Inhibition of MK499 binding to human ERG
# Sequence of Voltage-gated inwardly rectifying potassium channel KCNH2 (Q12809 whole entry): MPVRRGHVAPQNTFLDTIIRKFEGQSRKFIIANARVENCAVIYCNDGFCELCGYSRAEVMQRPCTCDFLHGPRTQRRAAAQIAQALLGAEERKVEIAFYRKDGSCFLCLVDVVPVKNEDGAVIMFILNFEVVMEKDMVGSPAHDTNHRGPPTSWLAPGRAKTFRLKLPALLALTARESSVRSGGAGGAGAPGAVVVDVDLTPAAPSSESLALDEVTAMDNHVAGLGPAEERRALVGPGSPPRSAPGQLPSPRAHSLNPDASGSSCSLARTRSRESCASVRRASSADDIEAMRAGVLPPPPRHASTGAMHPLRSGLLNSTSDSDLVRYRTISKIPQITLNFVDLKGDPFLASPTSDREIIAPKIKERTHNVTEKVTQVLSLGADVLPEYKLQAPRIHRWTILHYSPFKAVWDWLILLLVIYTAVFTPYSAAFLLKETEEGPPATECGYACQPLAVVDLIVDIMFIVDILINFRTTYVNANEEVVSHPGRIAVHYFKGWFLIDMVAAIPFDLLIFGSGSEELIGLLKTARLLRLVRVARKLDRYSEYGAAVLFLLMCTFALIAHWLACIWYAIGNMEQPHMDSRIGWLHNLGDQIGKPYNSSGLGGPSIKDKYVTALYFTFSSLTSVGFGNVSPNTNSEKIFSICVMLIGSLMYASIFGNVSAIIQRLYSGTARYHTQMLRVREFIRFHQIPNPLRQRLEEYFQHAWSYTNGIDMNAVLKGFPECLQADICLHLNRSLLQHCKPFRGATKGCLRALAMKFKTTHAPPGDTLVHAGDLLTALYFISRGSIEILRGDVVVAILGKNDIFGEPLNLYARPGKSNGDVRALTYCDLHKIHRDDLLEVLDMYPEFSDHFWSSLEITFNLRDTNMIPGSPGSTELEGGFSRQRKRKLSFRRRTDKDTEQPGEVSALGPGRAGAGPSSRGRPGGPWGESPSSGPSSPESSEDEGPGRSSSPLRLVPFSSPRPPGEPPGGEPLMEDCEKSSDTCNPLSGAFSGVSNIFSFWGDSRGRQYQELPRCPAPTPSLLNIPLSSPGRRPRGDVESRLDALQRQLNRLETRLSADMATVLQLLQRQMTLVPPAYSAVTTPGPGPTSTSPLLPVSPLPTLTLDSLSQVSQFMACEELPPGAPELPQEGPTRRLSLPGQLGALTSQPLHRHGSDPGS
# [5] = Apparent permeability in dog MDCK2-MDR1 cells; assay type: ADME, cell-based, Canis lupus familiaris; conditions: MDCK-MDR1
# [6] = target: T2, Interleukin-1 receptor-associated kinase 4 (Homo sapiens) (UniProt Q9NWZ3); assay: Ratio of IC50 for IRAK4 inhibition in human THP1-XBlue cells to IC50 for inhibition of human IRAK4; assay type: cell-based
# T2 sequence (whole entry): T1 sequence (Q9NWZ3 whole entry)
# [7] = target: T1, Interleukin-1 receptor-associated kinase 4; assay: Inhibition of human recombinant N-terminal GST-tagged full-length IRAK4 expressed in baculovirus infected Sf9 insect cells using 5FAM-RKRQGSVRRRVH-COOH as substrate in presence of ATP by IMAP fluorescence polarization assay
# MDR1 = assay: Efflux ratio of permeability in dog MDCK2-MDR1 cells; assay type: ADME, cell-based, Canis lupus familiaris; conditions: MDCK-MDR1
# Cytochrome P450 [8] = assay: Induction of CYP450 (unknown origin); assay type: ADME; conditions: human
# Cytochrome P450 [9] = assay: Inhibition of CYP450 (unknown origin); assay type: ADME, protein assay; conditions: human
# Homo sapiens [10] = species: Homo sapiens; assay: Selectivity for human IRAK4 over GST-tagged human MINK1
# Homo sapiens [11] = species: Homo sapiens; assay: Selectivity for human IRAK4 over human LRRK2
# [12] = Clearance in rat at 0.15 mg/kg, iv; assay type: ADME, organism-based; conditions: in vivo
# [13] = Clearance in rat at 1.45 mg/kg, iv; assay type: ADME, organism-based; conditions: in vivo
SMILES,IC50 [1] [nM],clearance [2] [mL/min/kg],Ratio IC50 [6],IC50 [7] [nM],IC50 [4] [nM],other results
Cn1cc(NC(=O)c2cccc(-c3ccnc(NCC(F)(F)F)c3)n2)c(C(N)=O)n1,294,–,< 3,–,–,–
CN1CCCC(CNC(=O)c2nn(C)cc2NC(=O)c2cccc(-c3ccnc(NCC4CC4)c3)n2)C1 (stereo not given),–,21,–,–,12000,–
Cn1cc(NC(=O)c2cccc(-c3ccnc(NCC4CC4)c3)n2)c(C(=O)NCc2ncc[nH]2)n1,–,–,–,1610,–,–
CC(C)CNC(=O)c1nn(C)cc1NC(=O)c1cccc(-c2ccnc(NCC3CC3)c2)n1,–,–,–,> 5000,–,–
Cn1cc(NC(=O)c2cccc(-c3ccnc(NCC4CC4)c3)n2)c(C(=O)N2CC(CN)C2)n1,477,6,< 3,–,40000,–
CN(C)CCCNC(=O)c1nn(C)cc1NC(=O)c1cccc(-c2ccnc(NCC3CC3)c2)n1,–,–,–,542,–,–
Cn1cc(NC(=O)c2cccc(-c3ccnc(NCC4CC4)c3)c2)c(C(N)=O)n1,428,25,< 3,187,6100,clearance [13]: 32 mL/min/kg
Cn1cc(NC(=O)c2cccc(-c3ccnc(NCC4CC4)c3)n2)c(C(=O)NCc2ccccc2)n1,–,–,–,> 5000,–,–
CN(C)[C@H]1CN(C(=O)c2nn(C)cc2NC(=O)c2cccc(-c3ccnc(NCC4CC4)c3)n2)C[C@@H]1O,533,37,< 3,–,> 60000,Papp [5]: 11 ×10⁻⁶ cm/s
Cn1cc(NC(=O)c2cccc(-c3ccnc(NCC4CC4)c3)n2)c(C(=O)NCc2ccncc2)n1,–,–,–,> 5000,–,–
Cn1cc(NC(=O)c2cccc(-c3ccnc(NCC4CC4)c3)n2)c(C(=O)N2CCC(O)C2)n1 (stereo not given),–,–,–,> 5000,–,–
Cn1cc(NC(=O)c2cccc(-c3ccnc(NCC4CC4)c3)n2)c(C(=O)NC2CCCC2)n1,–,–,–,> 5000,–,–

# Second part, led by results:
IC50 [1] [nM],clearance [2] [mL/min/kg],Ratio IC50 [6],IC50 [7] [nM],SMILES,IC50 [4] [nM],other results
259,24,< 3,–,Cn1cc(NC(=O)c2cccc(-c3ccnc(N)c3)n2)c(C(N)=O)n1,25000,clearance [3]: 69 mL/min/kg; Papp [5]: 23 ×10⁻⁶ cm/s
–,–,–,401,Cn1cc(NC(=O)c2cccc(-c3ccsc3)n2)c(C(N)=O)n1,–,–
169,17,< 3,–,Cn1cc(NC(=O)c2cccc(-c3ccnc(NCC4CC4)c3)n2)c(C(N)=O)n1,2900,clearance [3]: 33 mL/min/kg; Papp [5]: 18 ×10⁻⁶ cm/s; efflux ratio (MDR1): 0.3; Activity (Cytochrome P450 [8]): Not Active; inhibition (INH) (Cytochrome P450 [9]): Not Active; Selectivity ratio (Homo sapiens [10]): < 10; Selectivity ratio (Homo sapiens [11]): < 10
307,30,< 3,121,Cn1cc(NC(=O)c2cccc(-c3ccc(C4CC4)nc3)n2)c(C(N)=O)n1,> 60000,–
–,54,–,–,Cn1cc(NC(=O)c2cccc(-c3cccnc3)n2)c(C(N)=O)n1,–,–
–,43,–,–,Cn1cc(NC(=O)c2ccnc(-c3ccnc(NCC4CC4)c3)n2)c(C(N)=O)n1,1900,–
138,53,< 3,36,Cn1cc(-c2cccc(C(=O)Nc3cn(C)nc3C(N)=O)n2)cn1,> 60000,clearance [12]: 53 mL/min/kg; Papp [5]: 29 ×10⁻⁶ cm/s; efflux ratio (MDR1): 0.5; Activity (Cytochrome P450 [8]): Not Active; inhibition (INH) (Cytochrome P450 [9]): Not Active; Selectivity ratio (Homo sapiens [10]): < 10; Selectivity ratio (Homo sapiens [11]): < 10
–,–,–,3650,Cn1cc(NC(=O)c2cccc(-c3ccccc3)n2)c(C(N)=O)n1,–,–
–,53,–,–,Cn1cc(NC(=O)c2cncc(-c3ccnc(NCC4CC4)c3)c2)c(C(N)=O)n1,5200,clearance [13]: 31 mL/min/kg
–,–,–,683,Cn1cc(NC(=O)c2cccc(-c3cnccc3Cl)n2)c(C(N)=O)n1,–,–
202,–,< 3,106,Cn1cc(NC(=O)c2cccc(-c3cncc(Cl)c3)n2)c(C(N)=O)n1,–,–
–,–,–,> 5000,Cn1cc(NC(=O)c2cc(-c3ccnc(NCC4CC4)c3)ccn2)c(C(N)=O)n1,–,–
150,3,< 3,38,Cn1cc(NC(=O)c2cnn3ccc(N4CCNCC4)nc23)c(C(N)=O)n1,> 60000,clearance [12]: 39 mL/min/kg; Papp [5]: 1.6 ×10⁻⁶ cm/s; efflux ratio (MDR1): 1; Activity (Cytochrome P450 [8]): Not Active; inhibition (INH) (Cytochrome P450 [9]): Not Active; Selectivity ratio (Homo sapiens [10]): < 10; Selectivity ratio (Homo sapiens [11]): < 10
